Earlier results on 1 compound are cited in patent publication US20160324856A1, “USE OF SGC STIMULATORS FOR THE TREATMENT OF NEUROMUSCULAR DISORDERS” (IRONWOOD PHARMACEUTICALS, INC., priority 2014, published 2016).

Data set [1] concerns dystrophin-deficient zebrafish.

As for `CCCc1nn(C)c2c(=O)[nH]c(-c3cc(S(=O)(=O)N4CCN(C)CC4)ccc3OCC)nc12` [sildenafil], the “dystrophic skeletal muscle and survival” value in data set [1] was “rescue dystrophic skeletal muscle and prolong survival”. Also, in the data set on mdx mouse (mdx mice), the cardiac dynamics entry is recorded as “improve cardiac dynamics”. In addition, the “muscle ischemia, injury and fatigue” value in the data set on mdx mouse (mdx mouse, after a brief bout of exercise) was “alleviate muscle ischemia, as well as injury and fatigue”.
